Experimental data published in ChEMBL document CHEMBL4346729, “The discovery of novel 3-aryl-indazole derivatives as peripherally restricted pan-Trk inhibitors for the treatment of pain” (Bioorg Med Chem Lett, 2019).
Activity calls are given as the source filed them. The calls are words filed in the database; no cut-off is given here.

How the values were obtained:
[1] = Protein binding in Sprague-Dawley rat plasma; format: ADME, cell-free; conditions: read-out: PPB (converted)
[2] = Clearance in Sprague-Dawley rat at 1 mg/kg, iv; format: ADME, organism-based; conditions: in vivo
[3] = Cmax in Sprague-Dawley rat at 5 mg/kg, po; format: ADME, organism-based; design: dose 5 mg/kg, route oral; conditions: in vivo
[4] = Unbound drug level in brain of CFA induced Sprague-Dawley rat at 0.8 mg/kg, po after 1 hr; format: ADME, organism-based; conditions: in vivo, BLD = below limit of detection
[5] = Unbound drug level in brain of CFA induced Sprague-Dawley rat at 4 mg/kg, po after 1 hr; format: ADME, organism-based; conditions: in vivo, BLD = below limit of detection
Rattus norvegicus [6] = experiment: Unbound drug level in plasma of CFA induced Sprague-Dawley rat at 100 mg/kg, po after 1 hr; format: ADME, organism-based; conditions: in vivo
[7] = Toxicity in CFA induced Sprague-Dawley rat assessed as increase in weight gain at 100 mg/kg, po and measured up to 3 days; format: organism-based; conditions: in vivo, 72 h
[8] = Toxicity in CFA induced Sprague-Dawley rat assessed as increase in weight gain at 20 mg/kg, po and measured up to 3 days; format: organism-based; conditions: in vivo, 72 h
Rattus norvegicus [9] = experiment: Antinociceptive activity in CFA induced thermal hypersensitivity Sprague-Dawley rat model assessed as increase in paw withdrawal latency at 0.8 mg/kg, po after 1 hr; format: functional, organism-based
[10] = target: Tyrosine-protein kinase ABL1 (Homo sapiens) (UniProt P00519); experiment: Inhibition of recombinant human N-terminal GST/His6-tagged ABL1 wt internal (P118 to S535) expressed in Sf9 insect cells at 20 nM using phosphatidylserine as substrate incubated for 60 mins in presence of [33P]-ATP by scintillation counting method
Chain of Tyrosine-protein kinase ABL1 (Homo sapiens) (P00519 whole entry): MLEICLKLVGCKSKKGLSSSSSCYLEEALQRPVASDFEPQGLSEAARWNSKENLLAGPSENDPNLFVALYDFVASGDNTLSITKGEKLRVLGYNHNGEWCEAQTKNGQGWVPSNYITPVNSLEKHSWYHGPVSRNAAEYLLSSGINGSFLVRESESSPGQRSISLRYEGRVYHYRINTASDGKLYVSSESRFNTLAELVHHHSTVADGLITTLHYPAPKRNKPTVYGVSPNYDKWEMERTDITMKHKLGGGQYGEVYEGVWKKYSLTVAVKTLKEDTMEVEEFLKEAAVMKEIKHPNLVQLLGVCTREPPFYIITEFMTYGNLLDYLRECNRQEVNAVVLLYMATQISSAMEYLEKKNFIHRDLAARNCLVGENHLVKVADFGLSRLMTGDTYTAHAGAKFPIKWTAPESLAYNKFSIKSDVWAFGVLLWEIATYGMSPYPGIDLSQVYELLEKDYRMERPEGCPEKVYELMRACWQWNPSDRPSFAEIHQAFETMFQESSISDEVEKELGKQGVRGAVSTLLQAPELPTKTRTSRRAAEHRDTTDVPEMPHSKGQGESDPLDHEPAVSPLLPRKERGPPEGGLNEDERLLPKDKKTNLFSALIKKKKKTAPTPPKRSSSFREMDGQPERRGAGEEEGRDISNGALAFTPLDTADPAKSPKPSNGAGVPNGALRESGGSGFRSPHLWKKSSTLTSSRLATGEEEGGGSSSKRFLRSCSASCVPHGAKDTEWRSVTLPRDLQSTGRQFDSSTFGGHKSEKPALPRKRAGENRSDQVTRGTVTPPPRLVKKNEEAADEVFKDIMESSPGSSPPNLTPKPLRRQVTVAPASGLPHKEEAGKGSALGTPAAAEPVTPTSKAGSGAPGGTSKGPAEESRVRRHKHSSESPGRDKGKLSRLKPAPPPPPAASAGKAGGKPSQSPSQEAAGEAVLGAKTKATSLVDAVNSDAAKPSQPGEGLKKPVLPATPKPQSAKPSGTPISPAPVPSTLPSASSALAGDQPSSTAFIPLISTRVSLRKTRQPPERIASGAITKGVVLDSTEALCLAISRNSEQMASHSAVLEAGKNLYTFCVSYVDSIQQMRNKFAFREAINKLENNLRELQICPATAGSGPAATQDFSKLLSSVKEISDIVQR

[11] = target: 5'-AMP-activated protein kinase catalytic subunit alpha-1 (Homo sapiens) (UniProt Q13131); experiment: Inhibition of recombinant human full length N-terminal GST/His6-tagged AMPKalpha1 (M1 to Q550) expressed in Sf9 insect cells at 20 nM using phosphatidylserine as substrate incubated for 60 mins in presence of [33P]-ATP by scintillation counting method
[12] = target: Aurora kinase A (Homo sapiens) (UniProt O14965); experiment: Inhibition of recombinant human full length N-terminal GST/His6-tagged Aurora-A (M1 to S403) expressed in Sf9 insect cells at 20 nM using phosphatidylserine as substrate incubated for 60 mins in presence of [33P]-ATP by scintillation counting method
[13] = target: Tyrosine-protein kinase BTK (Homo sapiens) (UniProt Q06187); experiment: Inhibition of recombinant human full length N-terminal GST/His6-tagged BTK (M1 to S659) expressed in Sf9 insect cells at 20 nM using phosphatidylserine as substrate incubated for 60 mins in presence of [33P]-ATP by scintillation counting method
Chain of Tyrosine-protein kinase BTK (Homo sapiens) (Q06187 whole entry): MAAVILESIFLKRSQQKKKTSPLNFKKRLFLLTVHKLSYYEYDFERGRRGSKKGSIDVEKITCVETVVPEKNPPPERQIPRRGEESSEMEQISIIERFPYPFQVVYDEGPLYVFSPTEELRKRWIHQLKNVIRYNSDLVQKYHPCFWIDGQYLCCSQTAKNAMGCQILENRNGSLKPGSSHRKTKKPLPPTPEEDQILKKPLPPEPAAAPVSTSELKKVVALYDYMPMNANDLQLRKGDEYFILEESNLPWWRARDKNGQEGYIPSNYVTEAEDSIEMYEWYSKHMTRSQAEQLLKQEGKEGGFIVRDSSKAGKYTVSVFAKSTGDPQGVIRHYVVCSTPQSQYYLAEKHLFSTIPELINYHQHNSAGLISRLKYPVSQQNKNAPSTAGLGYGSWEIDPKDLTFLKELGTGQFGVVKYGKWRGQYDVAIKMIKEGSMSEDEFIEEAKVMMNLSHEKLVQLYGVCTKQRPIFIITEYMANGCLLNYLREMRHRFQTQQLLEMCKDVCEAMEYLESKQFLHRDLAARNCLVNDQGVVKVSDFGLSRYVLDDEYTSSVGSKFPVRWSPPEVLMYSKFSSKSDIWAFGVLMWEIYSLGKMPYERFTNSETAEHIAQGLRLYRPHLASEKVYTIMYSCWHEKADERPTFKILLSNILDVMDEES

[14] = target: Calcium/calmodulin-dependent protein kinase type II subunit delta (Homo sapiens) (UniProt Q13557); experiment: Inhibition of CAMK2D (unknown origin) at 20 nM using calmodulin as substrate incubated for 60 mins in presence of [33P]-ATP by scintillation counting method
[15] = target: Serine/threonine-protein kinase Chk2 (Homo sapiens) (UniProt O96017); experiment: Inhibition of CHK2 (unknown origin) at 20 nM using phosphatidylserine as substrate incubated for 60 mins in presence of [33P]-ATP by scintillation counting method
[16] = target: Glycogen synthase kinase-3 beta (Homo sapiens) (UniProt P49841); experiment: Inhibition of recombinant human full length N-terminal GST/His6-tagged GSK3-beta (M1 to T420) expressed in Sf9 insect cells at 20 nM using phosphatidylserine as substrate incubated for 60 mins in presence of [33P]-ATP by scintillation counting method
Chain of Glycogen synthase kinase-3 beta (Homo sapiens) (P49841 whole entry, looked up): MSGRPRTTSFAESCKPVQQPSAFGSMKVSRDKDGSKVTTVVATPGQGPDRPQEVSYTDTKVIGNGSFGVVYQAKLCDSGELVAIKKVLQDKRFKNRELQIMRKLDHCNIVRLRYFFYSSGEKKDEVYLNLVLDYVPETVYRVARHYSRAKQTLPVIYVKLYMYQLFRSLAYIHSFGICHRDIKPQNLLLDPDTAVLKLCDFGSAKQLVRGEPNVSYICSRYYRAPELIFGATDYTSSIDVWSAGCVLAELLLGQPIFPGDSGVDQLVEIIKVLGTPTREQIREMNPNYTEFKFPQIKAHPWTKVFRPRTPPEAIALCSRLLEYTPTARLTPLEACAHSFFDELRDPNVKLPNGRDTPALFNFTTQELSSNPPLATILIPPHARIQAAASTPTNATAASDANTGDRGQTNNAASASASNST

[17] = target: Interleukin-1 receptor-associated kinase 4 (Homo sapiens) (UniProt Q9NWZ3); experiment: Inhibition of recombinant human IRAK4 C-terminal (A104 to S460) expressed in Sf9 insect cells at 20 nM using phosphatidylserine as substrate incubated for 60 mins in presence of [33P]-ATP by scintillation counting method
Chain of Interleukin-1 receptor-associated kinase 4 (Homo sapiens) (Q9NWZ3 whole entry): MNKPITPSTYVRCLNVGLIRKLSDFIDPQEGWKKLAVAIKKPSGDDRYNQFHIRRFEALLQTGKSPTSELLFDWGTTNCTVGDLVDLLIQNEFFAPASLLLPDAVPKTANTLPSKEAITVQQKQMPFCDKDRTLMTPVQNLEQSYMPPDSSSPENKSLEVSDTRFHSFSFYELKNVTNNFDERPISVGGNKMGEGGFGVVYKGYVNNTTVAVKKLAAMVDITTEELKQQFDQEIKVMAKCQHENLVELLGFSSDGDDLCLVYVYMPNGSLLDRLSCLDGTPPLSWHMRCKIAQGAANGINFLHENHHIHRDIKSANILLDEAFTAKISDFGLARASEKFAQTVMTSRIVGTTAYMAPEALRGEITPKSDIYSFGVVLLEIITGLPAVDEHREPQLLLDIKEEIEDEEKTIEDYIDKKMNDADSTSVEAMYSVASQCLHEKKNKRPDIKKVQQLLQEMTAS

[18] = target: Tyrosine-protein kinase JAK1 (Homo sapiens) (UniProt P23458); experiment: Inhibition of recombinant human N-terminal GST/His6-tagged JAK1 wt (L583 to K1154) expressed in Sf9 insect cells at 20 nM using phosphatidylserine as substrate incubated for 60 mins in presence of [33P]-ATP by scintillation counting method
[19] = target: Mitogen-activated protein kinase kinase kinase kinase 4 (Homo sapiens) (UniProt O95819); experiment: Inhibition of recombinant human N-terminal GST/His6-tagged MAP4K4 (A7 to W1320) expressed in Sf9 insect cells at 20 nM using phosphatidylserine as substrate incubated for 60 mins in presence of [33P]-ATP by scintillation counting method
Chain of Mitogen-activated protein kinase kinase kinase kinase 4 (Homo sapiens) (O95819 2-1239 limits assumed): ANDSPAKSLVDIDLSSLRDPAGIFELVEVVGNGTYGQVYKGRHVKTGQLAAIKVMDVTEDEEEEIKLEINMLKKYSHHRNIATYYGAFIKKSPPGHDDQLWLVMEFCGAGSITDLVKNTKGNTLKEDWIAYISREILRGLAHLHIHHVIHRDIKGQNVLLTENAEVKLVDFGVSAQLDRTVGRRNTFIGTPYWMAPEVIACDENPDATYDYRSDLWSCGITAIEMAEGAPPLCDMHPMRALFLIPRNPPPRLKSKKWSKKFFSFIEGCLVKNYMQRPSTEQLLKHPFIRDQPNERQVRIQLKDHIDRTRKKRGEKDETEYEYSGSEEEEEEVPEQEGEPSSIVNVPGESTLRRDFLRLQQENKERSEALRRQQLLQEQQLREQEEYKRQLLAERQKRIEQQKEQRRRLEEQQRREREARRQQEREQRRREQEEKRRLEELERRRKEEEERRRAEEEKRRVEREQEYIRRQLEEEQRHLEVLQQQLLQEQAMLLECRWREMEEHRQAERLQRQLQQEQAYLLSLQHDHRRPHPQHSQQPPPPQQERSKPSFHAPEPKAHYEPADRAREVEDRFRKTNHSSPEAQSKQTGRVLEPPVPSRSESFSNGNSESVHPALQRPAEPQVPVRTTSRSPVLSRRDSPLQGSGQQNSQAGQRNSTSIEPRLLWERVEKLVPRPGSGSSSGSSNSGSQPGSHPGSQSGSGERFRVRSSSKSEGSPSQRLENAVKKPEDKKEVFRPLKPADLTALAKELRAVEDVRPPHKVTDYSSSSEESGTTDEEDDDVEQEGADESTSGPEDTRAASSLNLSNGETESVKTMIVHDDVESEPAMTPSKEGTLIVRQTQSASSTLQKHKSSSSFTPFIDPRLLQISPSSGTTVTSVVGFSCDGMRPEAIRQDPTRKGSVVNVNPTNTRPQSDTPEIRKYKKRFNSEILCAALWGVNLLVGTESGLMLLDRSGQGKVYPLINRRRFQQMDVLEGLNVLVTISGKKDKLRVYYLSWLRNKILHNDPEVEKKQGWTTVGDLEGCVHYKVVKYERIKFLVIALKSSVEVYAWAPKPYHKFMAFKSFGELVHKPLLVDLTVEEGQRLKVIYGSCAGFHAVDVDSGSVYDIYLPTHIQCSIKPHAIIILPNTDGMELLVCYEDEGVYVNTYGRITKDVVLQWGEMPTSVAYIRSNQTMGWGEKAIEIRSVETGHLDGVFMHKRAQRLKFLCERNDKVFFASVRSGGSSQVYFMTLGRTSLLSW

[20] = target: Serine/threonine-protein kinase 3 (Homo sapiens) (UniProt Q13188); experiment: Inhibition of recombinant human full length MST2 (M1 to F491) expressed in Sf9 insect cells at 20 nM using phosphatidylserine as substrate incubated for 60 mins in presence of [33P]-ATP by scintillation counting method
[21] = target: Serine/threonine-protein kinase pim-2 (Homo sapiens) (UniProt Q9P1W9); experiment: Inhibition of recombinant human full length N-terminal GST/His6-tagged PIM2 (M1 to P311) expressed in baculovirus infected Sf9 insect cells at 20 nM using phosphatidylserine as substrate incubated for 60 mins in presence of [33P]-ATP by scintillation counting method
Chain of Serine/threonine-protein kinase pim-2 (Homo sapiens) (Q9P1W9 whole entry, looked up): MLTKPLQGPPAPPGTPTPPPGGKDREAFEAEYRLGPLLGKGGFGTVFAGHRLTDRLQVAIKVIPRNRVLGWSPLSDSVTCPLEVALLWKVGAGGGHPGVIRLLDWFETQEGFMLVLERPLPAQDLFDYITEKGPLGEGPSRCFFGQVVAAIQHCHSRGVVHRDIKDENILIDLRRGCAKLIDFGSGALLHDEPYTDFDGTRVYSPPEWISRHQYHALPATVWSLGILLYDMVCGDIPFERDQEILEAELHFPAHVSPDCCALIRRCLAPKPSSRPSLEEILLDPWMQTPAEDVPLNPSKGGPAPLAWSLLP

Homo sapiens = species: Homo sapiens; experiment: Inhibition of PKA (unknown origin) at 20 nM using phosphatidylserine as substrate incubated for 60 mins in presence of [33P]-ATP by scintillation counting method
[22] = target: Protein kinase C beta type (Homo sapiens) (UniProt P05771); experiment: Inhibition of recombinant human full length N-terminal GST/His6-tagged PKC-beta2 (M1 to S673) expressed in Sf9 insect cells at 20 nM using phosphatidylserine as substrate incubated for 60 mins in presence of [33P]-ATP by scintillation counting method
[23] = target: Serine/threonine-protein kinase D2 (Homo sapiens) (UniProt Q9BZL6); experiment: Inhibition of PRKD2 (unknown origin) at 20 nM using phosphatidylserine as substrate incubated for 60 mins in presence of [33P]-ATP by scintillation counting method
[24] = target: Rho-associated protein kinase 2 (Homo sapiens) (UniProt O75116); experiment: Inhibition of recombinant human N-terminal GST/His6-tagged ROCK2 internal (P6 to S553) expressed in baculovirus infected Sf9 insect cells at 20 nM using phosphatidylserine as substrate incubated for 60 mins in presence of [33P]-ATP by scintillation counting method
[25] = target: Ribosomal protein S6 kinase alpha-5 (Homo sapiens) (UniProt O75582); experiment: Inhibition of RPS6KA5 (unknown origin) at 20 nM using phosphatidylserine as substrate incubated for 60 mins in presence of [33P]-ATP by scintillation counting method
Chain of Ribosomal protein S6 kinase alpha-5 (Homo sapiens) (O75582 whole entry, looked up): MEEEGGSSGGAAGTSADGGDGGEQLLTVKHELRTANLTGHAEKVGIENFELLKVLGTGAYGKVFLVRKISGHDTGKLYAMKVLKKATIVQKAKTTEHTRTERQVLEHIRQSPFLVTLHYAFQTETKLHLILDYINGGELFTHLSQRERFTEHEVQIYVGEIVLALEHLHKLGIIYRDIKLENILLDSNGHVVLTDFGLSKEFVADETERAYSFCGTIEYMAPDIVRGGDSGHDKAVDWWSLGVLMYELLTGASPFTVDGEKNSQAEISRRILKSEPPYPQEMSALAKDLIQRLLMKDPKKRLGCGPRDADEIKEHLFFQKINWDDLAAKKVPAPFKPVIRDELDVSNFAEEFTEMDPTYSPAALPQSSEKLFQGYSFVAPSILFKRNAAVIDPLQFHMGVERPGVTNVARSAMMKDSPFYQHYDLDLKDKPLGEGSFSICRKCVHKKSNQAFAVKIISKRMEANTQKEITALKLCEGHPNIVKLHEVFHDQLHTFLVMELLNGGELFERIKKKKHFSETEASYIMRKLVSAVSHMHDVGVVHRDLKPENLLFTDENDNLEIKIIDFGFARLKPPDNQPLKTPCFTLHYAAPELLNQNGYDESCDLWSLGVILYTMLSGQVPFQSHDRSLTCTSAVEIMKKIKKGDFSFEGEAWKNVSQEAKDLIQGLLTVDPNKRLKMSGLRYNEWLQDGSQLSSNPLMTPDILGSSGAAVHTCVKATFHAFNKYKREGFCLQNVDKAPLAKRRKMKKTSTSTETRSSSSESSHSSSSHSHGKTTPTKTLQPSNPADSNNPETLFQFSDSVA

[26] = target: Tyrosine-protein kinase SYK (Homo sapiens) (UniProt P43405); experiment: Inhibition of recombinant human full length N-terminal GST and C-terminal His6-tagged SYK (M1 to N635) expressed in Sf9 insect cells at 20 nM using phosphatidylserine as substrate incubated for 60 mins in presence of [33P]-ATP by scintillation counting method

- fraction unbound [1]: 0.134
- clearance [2]: 73.3 mL/min/kg
- Cmax [3]: 161 nM
- Drug uptake(free) [4]: Bld
- Drug uptake(free) [5]: Bld
- Cp(f) (Rattus norvegicus [6]): 266.5 nM
- inhibition [10]: 1%
- inhibition [11]: -9%
- inhibition [12]: -7%
- inhibition [13]: -6%
- inhibition [14]: 0%
- inhibition [15]: -1%
- inhibition [16]: 11%
- inhibition [17]: -8%
- inhibition [18]: -5%
- inhibition [19]: 5%
- inhibition [20]: 3%
- inhibition [21]: -1%
- inhibition (Homo sapiens): -8%
- inhibition [22]: 5%
- inhibition [23]: -8%
- inhibition [24]: 5%
- inhibition [25]: 5%
- inhibition [26]: 4%
Structure (SMILES): Cn1cc(-c2n[nH]c3ccc(NCc4cc(F)ccc4S(C)(=O)=O)cc23)cn1
- Activity [7]: Toxic
- Activity [8]: Non-Toxic
- Activity (Rattus norvegicus [9]): inactive
